Reference: the supplement of paper PMC11208160

Experiment: recombinant barcode read abundance after kanamycin selection (control-corrected) (log10(CPM+1)); higher = more efficient recombination; sequences stand for … in AGTGCAGAGAAAATCGGCCAGTTTTCTCTGCCTGCAGTCCGCATGCCGT…AGATTTATGCAGCGGACTGCCTTTCTCCCAAAGTGATAAACCGGACAGTATCATGGACCGGTTTTCCCGGTAATCCGTATTTGCAAGGTTGGTTTCACT; site = the 11-nt target
Summary of the method: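 Pooled oligos, each joining a target to an IS621 bridge RNA target-binding loop, were cloned and co-electroporated with a donor plasmid into E. coli. Selective plates carried chloramphenicol/ampicillin/kanamycin and 0.1 mM IPTG, while chloramphenicol/ampicillin LB agar served as control, with two replicates of each. Recombination efficiency rests on averaged, control-corrected counts per million of barcodes at recombinant junctions, shown as log10(CPM+1).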
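Further: IS621 recombinase and bridge RNA in Escherichia coli cells.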

| Sequence | recombinant barcode read abundance (log10) |
| --- | --- |
| CAGATCCCTTGGGTTCTAACCTGTTGCCT (site CGGATCCCTAG) | 0.0247 |
| CAGATCCCTTGGGTTCTAACCTGTTGCCT (site CTGATCCCTAG) | 0.0156 |
| CAGATGACTTGGGTTCTAACCTGTTGCCT (site CAAATTACTAG) | 0.393 |
| CAGATGACTTGGGTTCTAACCTGTTGCCT (site CAGATGACTAG) | 1.52 |
| CAGCCGTCTTGGGTTCTAACCTGTTGCGG (site CAATCGTCTCC) | 0.0473 |
| CAGCCGTCTTGGGTTCTAACCTGTTGCGG (site CAGCCGTCTCC) | 1.09 |
| CAGCGAGCTTGGGTTCTAACCTGTTGCCG (site CAACGAGCTCG) | 0.21 |
| CAGCGAGCTTGGGTTCTAACCTGTTGCCG (site CACCGAGCTCG) | 0.117 |
| CAGCGAGCTTGGGTTCTAACCTGTTGCCG (site CAGCGAGCTCG) | 0.737 |
| CAGCGAGCTTGGGTTCTAACCTGTTGCCG (site CATCGAGCTCG) | 0.0483 |
| CAGGAGACTTGGGTTCTAACCTGTTGCCT (site CAGGAGACTAG) | 1.63 |
| CAGGAGACTTGGGTTCTAACCTGTTGCCT (site TAGGAGACTGG) | 0.0578 |
| CAGGCGACTTGGGTTCTAACCTGTTGCCT (site CAGGCGACTAG) | 0.0758 |
| CAGGCGACTTGGGTTCTAACCTGTTGCCT (site CAGGCGCCTAG) | 0.556 |
| CAGGCGACTTGGGTTCTAACCTGTTGCCT (site CAGGCGGCTAG) | 0 |
| CAGGCGACTTGGGTTCTAACCTGTTGCCT (site CAGGCGTCTAG) | 0.394 |
| CAGGGGACTTGGGTTCTAACCTGTTGCAC (site CAGGGGACTGT) | 2.38 |
| CAGGGGACTTGGGTTCTAACCTGTTGCAC (site TCCAACCCTAA) | 0.0666 |
| CAGGGTTCTTGGGTTCTAACCTGTTGCCT (site CAGGGTTCTAG) | 2.18 |
| CAGGGTTCTTGGGTTCTAACCTGTTGCCT (site CCGGGTTCTAG) | 0.0396 |
| CAGGGTTCTTGGGTTCTAACCTGTTGCCT (site CGGGGTTCTAG) | 0.12 |
| CAGGGTTCTTGGGTTCTAACCTGTTGCCT (site CTGGGTTCTAG) | 0.21 |

| Sequence | recombinant barcode read abundance (log10) |
| --- | --- |
| CAGGTACCTTGGGTTCTAACCTGTTGCAT (site CAGGTACCTAT) | 3.14 |
| CAGGTACCTTGGGTTCTAACCTGTTGCAT (site CAGGTACCTCT) | 0.864 |
| CAGGTCCCTTGGGTTCTAACCTGTTGCCG (site ATACGTTCTAT) | 0.102 |
| CAGGTCCCTTGGGTTCTAACCTGTTGCCG (site CAGGTCCCTCG) | 2.74 |
| CAGGTGACTTGGGTTCTAACCTGTTGCGG (site CAGGTGACTCC) | 1.33 |
| CAGGTGACTTGGGTTCTAACCTGTTGCGG (site GGATATCCTAA) | 0.0229 |
| CAGTACGCTTGGGTTCTAACCTGTTGCCT (site CAGCAAGCTAG) | 0.31 |
| CAGTACGCTTGGGTTCTAACCTGTTGCCT (site CAGTACGCTAG) | 0.652 |
| CAGTATCCTTGGGTTCTAACCTGTTGCCT (site CAATATCCTAG) | 0.867 |
| CAGTATCCTTGGGTTCTAACCTGTTGCCT (site CACTATCCTAG) | 0.0764 |
| CAGTATCCTTGGGTTCTAACCTGTTGCCT (site CAGTATCCTAG) | 0.945 |
| CAGTATCCTTGGGTTCTAACCTGTTGCCT (site CATTATCCTAG) | 0.096 |
| CAGTGCTCTTGGGTTCTAACCTGTTGCCA (site CAATGCTCTAG) | 0.648 |
| CAGTGCTCTTGGGTTCTAACCTGTTGCCA (site CAGTGCTCTTG) | 1.52 |
| CAGTGTCCTTGGGTTCTAACCTGTTGCCG (site CAGTGTCCTCG) | 1.45 |
| CAGTGTCCTTGGGTTCTAACCTGTTGCCG (site GAGCGTCCTCG) | 0.122 |
| CATAACCCTTGGGTTCTAACCTGTTGCAT (site ATCGGATCTCG) | 0.0317 |
| CATAACCCTTGGGTTCTAACCTGTTGCAT (site CATAACCCTAT) | 1.84 |
| CATCAGCCTTGGGTTCTAACCTGTTGCCT (site CATAAGCCTAG) | 0.206 |
| CATCAGCCTTGGGTTCTAACCTGTTGCCT (site CATCAGCCTAG) | 0.547 |
| CATCAGCCTTGGGTTCTAACCTGTTGCCT (site CATGAGCCTAG) | 0.306 |
| CATCAGCCTTGGGTTCTAACCTGTTGCCT (site CATTAGCCTAG) | 0.0622 |

| Sequence | recombinant barcode read abundance (log10) |
| --- | --- |
| CATCCGGCTTGGGTTCTAACCTGTTGCCT (site CATCCGACTAG) | 0.317 |
| CATCCGGCTTGGGTTCTAACCTGTTGCCT (site CATCCGCCTAG) | 0.0278 |
| CATCCGGCTTGGGTTCTAACCTGTTGCCT (site CATCCGGCTAG) | 0.434 |
| CATCCGGCTTGGGTTCTAACCTGTTGCCT (site CATCCGTCTAG) | 0.255 |
| CATCCGTCTTGGGTTCTAACCTGTTGCTT (site CATCCCTCTAA) | 0.0222 |
| CATCCGTCTTGGGTTCTAACCTGTTGCTT (site CATCCGTCTAA) | 1.24 |
| CATCCTACTTGGGTTCTAACCTGTTGCAT (site CATCCTACTAT) | 0.665 |
| CATCCTACTTGGGTTCTAACCTGTTGCAT (site CATCCTACTCG) | 0.0637 |
| CATCCTACTTGGGTTCTAACCTGTTGCGG (site CATCCTACTCC) | 1.98 |
| CATCCTACTTGGGTTCTAACCTGTTGCGG (site CATCCTCCTCA) | 0.0136 |
| CATCGATCTTGGGTTCTAACCTGTTGCCT (site CATCGATCTAG) | 0.558 |
| CATCGATCTTGGGTTCTAACCTGTTGCCT (site CATCTATCTAG) | 0 |
| CATCGCACTTGGGTTCTAACCTGTTGCCT (site CATCGCACTAG) | 0.0933 |
| CATCGCACTTGGGTTCTAACCTGTTGCCT (site CCTCGCACTAG) | 0.289 |
| CATCGCACTTGGGTTCTAACCTGTTGCCT (site CGTCGCACTAG) | 0.153 |
| CATCGCACTTGGGTTCTAACCTGTTGCCT (site CTTCGCACTAG) | 0.184 |
| CATCGGACTTGGGTTCTAACCTGTTGCAG (site ACATAAGCTAG) | 0.139 |
| CATCGGACTTGGGTTCTAACCTGTTGCAG (site CATCGGACTCT) | 1.48 |
| CATCGTACTTGGGTTCTAACCTGTTGCAT (site CATCGTACTAT) | 0.00546 |
| CATCGTACTTGGGTTCTAACCTGTTGCAT (site CCTCGGACTAT) | 0.0241 |
| CATCTACCTTGGGTTCTAACCTGTTGCGG (site CATCTACCTCC) | 1.39 |
| CATCTACCTTGGGTTCTAACCTGTTGCGG (site TTGGATACTTG) | 0.332 |
